The numbers were not newly measured in patent US9061052B2, “Aqueous extract of tobacco leaves, its uses in the treatment of dependence” (NFL BIOSCIENCE, priority 2006, dated 2015), which cites them from elsewhere.

The data set deals with tobacco dependence. The following applies: in vivo.

`CC(NC(C)(C)C)C(=O)c1cccc(Cl)c1` (stereo not shown) [Zyban, bupropion]: the Adverse effects entry is “dry mouth sensation, insomnia and dizziness”.
